Measurements reported in ChEMBL document CHEMBL3826971 (Bioorg Med Chem Lett, 2016).

Assay: Acute toxicity in ip dosed mouse measured after 72 hrs
Format: organism-based
Conditions: in vivo

CN(C)C(=O)Oc1cccc([N+](C)(C)C)c1.COS(=O)(=O)[O-] [NEOSTIGMINE METHYLSULFATE]
LD50 at 72 h: 0.51 mg/kg

CN(C)C(=O)Oc1ccc[n+](C)c1.[Br-] [PYRIDOSTIGMINE BROMIDE]
LD50 at 72 h: 3.3 mg/kg
